The values below come from patent publication US20010039287A1, “AROMATIC SULFONE HYDROXAMIC ACID METALLOPROTEASE INHIBITOR” (priority 1997, published 2001).

What all share (test): biochemical
Assay [1] has as its target T1, recombinant human MMP-1 (Homo sapiens, UniProt P03956).
T1 construct: made in house; host or cells: transfected HT-1080 cells (provided by Dr. Harold Welgus, Washington University)
T1 sequence (P03956 100-469): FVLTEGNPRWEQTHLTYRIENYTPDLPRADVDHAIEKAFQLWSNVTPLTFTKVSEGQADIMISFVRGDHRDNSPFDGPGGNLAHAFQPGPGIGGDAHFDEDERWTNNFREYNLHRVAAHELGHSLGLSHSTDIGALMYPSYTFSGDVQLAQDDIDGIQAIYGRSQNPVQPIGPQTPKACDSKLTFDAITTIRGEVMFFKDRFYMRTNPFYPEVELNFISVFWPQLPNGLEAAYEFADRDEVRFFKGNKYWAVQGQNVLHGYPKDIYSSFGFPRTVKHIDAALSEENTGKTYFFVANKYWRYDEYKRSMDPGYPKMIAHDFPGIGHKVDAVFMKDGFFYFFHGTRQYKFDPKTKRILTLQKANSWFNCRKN
The note with it: read-out: MMP-1 IC50.

In assay [2] the target is recombinant human MMP-13 (Homo sapiens, UniProt P45452).
Assay [3] concerns the target T2, recombinant human MMP-2 (Homo sapiens, UniProt P08253).
T2 sequence (P08253 110-660): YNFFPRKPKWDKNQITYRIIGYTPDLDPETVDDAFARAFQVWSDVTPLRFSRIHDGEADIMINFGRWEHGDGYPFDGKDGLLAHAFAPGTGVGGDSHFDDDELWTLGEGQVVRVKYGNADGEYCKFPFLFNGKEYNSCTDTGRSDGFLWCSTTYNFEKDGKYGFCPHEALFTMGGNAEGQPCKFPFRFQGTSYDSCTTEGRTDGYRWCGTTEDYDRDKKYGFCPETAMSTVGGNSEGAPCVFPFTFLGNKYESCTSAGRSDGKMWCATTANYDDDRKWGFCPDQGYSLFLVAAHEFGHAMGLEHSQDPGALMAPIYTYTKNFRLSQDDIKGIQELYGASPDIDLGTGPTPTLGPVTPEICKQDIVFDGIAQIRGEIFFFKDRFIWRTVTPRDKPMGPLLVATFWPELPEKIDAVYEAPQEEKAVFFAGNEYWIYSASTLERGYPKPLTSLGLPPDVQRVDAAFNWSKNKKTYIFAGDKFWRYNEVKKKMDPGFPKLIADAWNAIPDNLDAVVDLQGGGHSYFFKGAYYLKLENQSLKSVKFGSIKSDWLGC

Where [4] appears, read: Inhibition Table A, read-out: MMP-13 IC50.
Setting [5] is: Inhibition Table A, read-out: MMP-2 IC50.
The mark [6] stands for this setting: Inhibition Table B, read-out: MMP-13 IC50.
The mark [7] stands for this setting: Inhibition Table B, read-out: MMP-2 IC50.

Counter-ions that a name gives are not always drawn. Like-named read-outs stand apart in the source and are kept apart here.

One may read the IC50 as the point on the concentration scale where inhibition reaches its midpoint. Regarding `CC(C)(C)OC(=O)N1CCC(C(=O)NO)(S(=O)(=O)c2ccc(Oc3ccccc3)cc2)CC1` [Example 3], the values for the IC50 in assay [1] (Inhibition Table A), in assay [2] (setting [4]) and in assay [3] (setting [5]) were 1140 nM, 0.3 nM and 0.2 nM, respectively.

As for `O=C(NO)/C(=C\c1ccccc1)S(=O)(=O)c1ccc(Oc2ccccc2)cc1` [Example 5], the values for the IC50 in assay [1] (Inhibition Table A), in assay [2] (setting [4]) and in assay [3] (setting [5]) were above 10000 nM, 4800 nM and 1800 nM, respectively.

In the case of `O=C(CS(=O)(=O)c1ccc(NC(=O)c2ccccc2)cc1)NO` [Example 7], the IC50 was above 10000 nM in assay [1] (Inhibition Table A) and 1.8 nM in assay [3] (setting [5]).

In the case of `O=C(Nc1ccc(S(=O)(=O)C2(C(=O)NO)CCNCC2)cc1)c1ccccc1` [Example 8], the 50% inhibitory concentration (IC50) in assay [1] (Inhibition Table A) was above 10000 nM; in assay [2] (setting [4]) it was 24.1 nM.

For `O=C(NO)C1(S(=O)(=O)c2ccc(N3CCC(c4ccccc4)CC3)cc2)CCOCC1` [Example 11], the IC50 in assay [1] (Inhibition Table A) is above 10000 nM; in assay [2] (setting [4]), 6 nM; in assay [3] (MMP-2 IC50 (nM)) it was 4.4 nM.

As for `CN1CCC(C(=O)NO)(S(=O)(=O)c2ccc(Oc3ccccc3)cc2)CC1` [Example 14], the concentration for half-maximal inhibition (IC50) is 464 nM in assay [1] (Inhibition Table A), 0.1 nM in assay [2] (setting [4]) and below 0.1 nM in assay [3] (setting [5]).

In the case of `CS(=O)(=O)N1CCC(C(=O)NO)(S(=O)(=O)c2ccc(Oc3ccccc3)cc2)CC1` [Example 18], the IC50 in assay [1] (Inhibition Table A) is 800 nM; in assay [2], 0.5 nM; in assay [3] (MMP-2 IC50 (nM)), 0.3 nM.

With `O=C(NO)C1(S(=O)(=O)c2ccc(SC3CCCCC3)cc2)CCNCC1` [Example 19], the results for the IC50 in assay [1] (Inhibition Table A), in assay [2] (setting [4]) and in assay [3] (setting [5]) were above 10000 nM, 9 nM and 13.9 nM, respectively.

For `O=C(NO)C1(S(=O)(=O)c2ccc(N3CCN(c4ccccc4)CC3)cc2)CCOCC1` [Example 20], the IC50 worked out at 10000 nM in assay [1] (Inhibition Table A), 1.7 nM in assay [2] (setting [4]) and 23.5 nM in assay [3] (MMP-2 IC50 (nM)).

Regarding `O=C(NO)C1(S(=O)(=O)c2ccc(Sc3ccc(F)cc3)cc2)CCNCC1` [Example 22], the figures for the IC50 in assay [1] (Inhibition Table A), in assay [2] (setting [4]) and in assay [3] (setting [5]) were above 10000 nM, 1.2 nM and 0.9 nM, respectively.

On to `C#CCN1CCC(C(=O)NO)(S(=O)(=O)c2ccc(Oc3ccc(-n4ccnc4)cc3)cc2)CC1` [Example 23], for which the IC50 is 2280 nM in assay [1] (Inhibition Table A), 0.2 nM in assay [2] (setting [4]) and below 0.1 nM in assay [3] (setting [5]).

Regarding `O=C(NO)C1(S(=O)(=O)c2ccc(Sc3ccc(Cl)cc3)cc2)CCOCC1` [Example 25], the IC50 in assay [1] (Inhibition Table A) is above 10000 nM; in assay [2] (setting [4]), 3 nM; in assay [3] (setting [5]), 2.6 nM.

As to `C=CCN1CCC(C(=O)NO)(S(=O)(=O)c2ccc(Sc3ccccc3)cc2)CC1` [Example 28], the results for the IC50 in assay [1] (Inhibition Table A), in assay [2] (setting [4]) and in assay [3] (setting [5]) were 770 nM, below 0.1 nM and below 0.1 nM, respectively.

As to `O=C(NO)C1(S(=O)(=O)c2ccc(Oc3ccccc3)cc2)CCN(CC2CC2)CC1` [Example 29], the values for the IC50 in assay [1] (Inhibition Table A), in assay [2] and in assay [3] (setting [5]) were above 10000 nM, 0.3 nM and 0.15 nM, respectively.

Consider `O=C(CN1CCCC1)N1CCC(C(=O)NO)(S(=O)(=O)c2ccc(Oc3ccccc3)cc2)CC1` [Example 31, N-hydroxy-4-[(4-phenoxyphenyl)sulfonyl]-1-(1-pyrrolidinylacetyl)-4-piperidine Carboxamide, Monohydrochloride], for which the results for the IC50 in assay [1] (Inhibition Table B), in assay [2] (setting [6]) and in assay [3] (setting [7]) were 370 nM, 0.2 nM and below 0.1 nM, respectively.

As to `CC(C)N1CCC(C(=O)NO)(S(=O)(=O)c2ccc(Sc3ccccc3)cc2)CC1` [Example 34, N-hydroxy-1-(1-methylethyl)-4-[[4-(phenylthio)phenyl]sulfonyl]-4-piperidinecarboxamide, Monohydrochloride], the IC50 in assay [1] is above 10000 nM; in assay [2] (setting [6]), 1.2 nM; in assay [3] (setting [7]), 1.1 nM.

Turning to `CC(=O)N1CCC(C(=O)NO)(S(=O)(=O)c2ccc(Oc3ccc4c(c3)OCO4)cc2)CC1` [Example 37, 1-acetyl-4-[[4-(1,3-benzodioxol-5-yloxy)phenyl]sulfonyl]-N-hydroxy-4-piperidinecarboxamide, Monohydrochloride], the IC50 amounted to 1000 nM in assay [1] (Inhibition Table B), 0.3 nM in assay [2] (setting [6]) and 0.2 nM in assay [3] (setting [7]).

For the molecule `C#CCN1CCC(C(=O)NO)(S(=O)(=O)c2ccc(Oc3cc(OC)cc(OC)c3)cc2)CC1` [Example 39, 4-[[4-(3,5-dimethoxyphenoxy)phenyl]sulfonyl]-N-hydroxy-1-(2-propynyl)-4-piperidinecarboxamide, Monohydrochloride], the IC50 is above 10000 nM in assay [1] (Inhibition Table B), 24.5 nM in assay [2] (setting [6]) and 230 nM in assay [3] (setting [7]).

As to `C#CCN1CCC(C(=O)NO)(S(=O)(=O)c2ccc(Oc3cccc(C)c3)cc2)CC1` [Example 41, N-hydroxy-4-[[4-(3-methylphenoxy)phenyl]sulfonyl]-1-(2-propynyl)-4-piperidinecarboxamide, Monohydrochloride], the IC50 in assay [1] (Inhibition Table B) stood at 1200 nM; in assay [2] (setting [6]), 0.2 nM; in assay [3] (setting [7]), 0.15 nM.

On to `C#CCN1CCC(C(=O)NO)(S(=O)(=O)c2ccc(SC3CCCC3)cc2)CC1` [Example 45, 4-[[4-(Cyclopentylthio)-phenyl]sulfonyl]-N-hydroxy-1-(2-propynyl)-4-piperidinecarboxamide, Monohydrochloride], for which the IC50 in assay [1] (Inhibition Table B) was determined as 8800 nM; in assay [2] (setting [6]) it was 1.7 nM; in assay [3] (setting [7]) it was 2.5 nM.

Regarding `CC1(C)OCC(C(=O)NO)(S(=O)(=O)c2ccc(Oc3ccccc3)cc2)CO1` [Example 48], the IC50 came to 210 nM in assay [1] (Inhibition Table B), 0.25 nM in assay [2] (setting [6]) and 0.2 nM in assay [3] (setting [7]).

For the molecule `O=C(NO)C1(S(=O)(=O)c2ccc(Sc3ccccc3)cc2)CCSCC1` [Example 49, tetrahydro-N-hydroxy-4-[[4-(phenylthio)phenyl]sulfonyl]-2H-thiopyran-4-carboxamide], the results for the IC50 in assay [1] (Inhibition Table B), in assay [2] (setting [6]) and in assay [3] (setting [7]) were above 10000 nM, 90 nM and 76.9 nM, respectively.

For the molecule `COc1ccc(Sc2ccc(S(=O)(=O)C3(C(=O)NO)CCSCC3)cc2)cc1` [Example 51, Tetrahydro-N-hydroxy-4-[[4-[(4-methoxypheny)thio]phenyl]sulfonyl]-2H-thiopyran-4-carboxamide], the results for the IC50 in assay [1] (Inhibition Table B), in assay [2] (setting [6]) and in assay [3] (setting [7]) were 5500 nM, 1.3 nM and 0.7 nM, respectively.

Take `O=C(NO)C1(S(=O)(=O)c2ccc(Sc3ccccc3)cc2)CCS(=O)(=O)CC1` [Example 52]: the IC50 in assay [1] (Inhibition Table B) was above 10000 nM; in assay [2] (setting [6]), 5.9 nM; in assay [3] (setting [7]), 2.7 nM.

Consider `CNC(=O)C1CCCN(c2ccc(S(=O)(=O)C3(C(=O)NO)CCOCC3)cc2)C1` (centres unmarked) [Example 139], for which, in assay [3] (setting [7]), the IC50 was 1000 nM.

In the case of `O=C(C1CCCN(c2ccc(S(=O)(=O)C3(C(=O)NO)CCOCC3)cc2)C1)N1CCOCC1` (centres unmarked) [Example 140], the IC50 in assay [3] (setting [7]) came to 1000 nM.

In the case of `C[C@@H]1CN(C(=O)C2CCCN(c3ccc(S(=O)(=O)C4(C(=O)NO)CCOCC4)cc3)C2)C[C@H](C)O1` (some centres unmarked) [Example 169], in assay [1] (Inhibition Table B), the IC50 was 10000 nM.

In the case of `O=C(C1CCCN(c2ccc(S(=O)(=O)C3(C(=O)NO)CCOCC3)cc2)C1)N1CCCC2CCCCC21` (centres unmarked) [Example 170], the IC50 in assay [1] (Inhibition Table B) worked out at 10000 nM.

For `N[C@H]1CCN(C(=O)C2CCN(c3ccc(S(=O)(=O)C4(C(=O)NO)CCOCC4)cc3)CC2)C1` [Example 175], in assay [1] (Inhibition Table B), the IC50 turned out to be 10000 nM.

With `C[C@@H]1CN(C(=O)C2CCN(c3ccc(S(=O)(=O)C4(C(=O)NO)CCOCC4)cc3)CC2)C[C@H](C)O1` [Example 176], the IC50 in assay [1] (Inhibition Table B) is above 10000 nM.

On to `O=C(C1CCN(c2ccc(S(=O)(=O)C3(C(=O)NO)CCOCC3)cc2)CC1)N1CCCC1` [Example 179], for which the IC50 in assay [2] (setting [6]) came out at 100 nM.

Take `CCCCNC(=O)C1CCN(c2ccc(S(=O)(=O)C3(C(=O)NO)CCOCC3)cc2)CC1` [Example 181]: in assay [1] (Inhibition Table B), the IC50 worked out at 10000 nM.

Take `O=C(NC1CCCCCC1)C1CCN(c2ccc(S(=O)(=O)C3(C(=O)NO)CCOCC3)cc2)CC1` [Example 194]: the IC50 in assay [1] (Inhibition Table B) worked out at 10000 nM.

In the case of `O=C(NCc1ccncc1)C1CCN(c2ccc(S(=O)(=O)C3(C(=O)NO)CCOCC3)cc2)CC1` [Example 195], the IC50 is 10000 nM in assay [1] (Inhibition Table B) and 100 nM in assay [3] (setting [7]).

Regarding `COCCN1CCC(C(N)=O)(S(=O)(=O)c2ccc(Oc3ccc(OC(F)(F)F)cc3)cc2)CC1` [Example 444, 1-(2-methoxyethyl)-4-[[4-[4-(trifluoromethoxy)phenoxy]phenyl]sulfonyl]-4-piperidinecarboxamide], in assay [1], the IC50 was above 10000 nM.

In the case of `C#CCN1CCC(C(N)=O)(S(=O)(=O)c2ccc(Sc3ccccc3)cc2)CC1` [Example 445, 4-[(4-phenylthiophenyl)sulfonyl]-1-(2—propynyl)-4-piperidinecarboxamide], the IC50 in assay [1] (Inhibition Table B) was above 10000 nM.
